In PubChem BioAssay (NCI):
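Test compounds were applied to cells in 96-well plates for 48 hours at 5 doses. TGI is the concentration that stops growth completely.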

Experiments:
Experiment in all cases: NCI-60 cell line screen, 48 h
NCI-H23 lung = test system: NCI-H23 lung
SNB-19 CNS = test system: SNB-19 CNS
SNB-75 CNS = test system: SNB-75 CNS
RPMI-8226 leukemia = test system: RPMI-8226 leukemia
IGROV1 ovarian = test system: IGROV1 ovarian
HT29 colon = test system: HT29 colon
DU-145 prostate = test system: DU-145 prostate
SF-295 CNS = test system: SF-295 CNS
LOX IMVI melanoma = test system: LOX IMVI melanoma
A549 NSCLC = test system: A549 NSCLC
SN12C renal = test system: SN12C renal
786-0 renal = test system: 786-0 renal
SK-MEL-2 melanoma = test system: SK-MEL-2 melanoma
EKVX NSCLC = test system: EKVX NSCLC
PC-3 prostate = test system: PC-3 prostate
CCRF-CEM leukemia = test system: CCRF-CEM leukemia
HCT-116 colon = test system: HCT-116 colon
MCF7 breast = test system: MCF7 breast
NCI/ADR-RES ovarian = test system: NCI/ADR-RES ovarian
SK-OV-3 ovarian = test system: SK-OV-3 ovarian
NCI-H460 lung = test system: NCI-H460 lung
T-47D breast = test system: T-47D breast
HL-60(TB) leukemia = test system: HL-60(TB) leukemia
OVCAR-5 ovarian = test system: OVCAR-5 ovarian
SR leukemia = test system: SR leukemia
MDA-MB-231 breast = test system: MDA-MB-231 breast
OVCAR-8 ovarian = test system: OVCAR-8 ovarian
UACC-62 melanoma = test system: UACC-62 melanoma
HCT-15 colon = test system: HCT-15 colon
HCC-2998 colon = test system: HCC-2998 colon
HOP-62 NSCLC = test system: HOP-62 NSCLC
HOP-92 NSCLC = test system: HOP-92 NSCLC
UO-31 renal = test system: UO-31 renal
A498 renal = test system: A498 renal
MDA-MB-435 = test system: MDA-MB-435
MDA-N = test system: MDA-N
SW-620 colon = test system: SW-620 colon
KM12 colon = test system: KM12 colon
SK-MEL-28 melanoma = test system: SK-MEL-28 melanoma
MOLT-4 leukemia = test system: MOLT-4 leukemia
CAKI-1 renal = test system: CAKI-1 renal
K-562 leukemia = test system: K-562 leukemia
RXF 393 renal = test system: RXF 393 renal
OVCAR-3 ovarian = test system: OVCAR-3 ovarian
SF-539 CNS = test system: SF-539 CNS
NCI-H226 lung = test system: NCI-H226 lung
OVCAR-4 ovarian = test system: OVCAR-4 ovarian
COLO 205 colon = test system: COLO 205 colon
ACHN renal = test system: ACHN renal
U251 CNS = test system: U251 CNS
NCI-H522 lung = test system: NCI-H522 lung
UACC-257 melanoma = test system: UACC-257 melanoma
SK-MEL-5 melanoma = test system: SK-MEL-5 melanoma
TK-10 renal = test system: TK-10 renal
HS 578T breast = test system: HS 578T breast
M14 melanoma = test system: M14 melanoma
BT-549 breast = test system: BT-549 breast
SF-268 CNS = test system: SF-268 CNS
MALME-3M melanoma = test system: MALME-3M melanoma

`CC1=CC(C)C(C)N(CC2=NCCN2)c2ccccc21` (stereo not drawn) was tested, and the TGI (NCI-H23 lung) was > 100 µM, the TGI (SNB-19 CNS) was > 100 µM and the TGI (SNB-75 CNS) was > 85.5 µM. For the same compound, the TGI (RPMI-8226 leukemia) was > 100 µM, the TGI (IGROV1 ovarian) was > 100 µM and the TGI (HT29 colon) was 45.8 µM. For the same compound, the TGI (DU-145 prostate) was > 100 µM, the TGI (SF-295 CNS) was > 100 µM and the TGI (LOX IMVI melanoma) was > 100 µM. The TGI (A549 NSCLC) was > 100 µM, the TGI (SN12C renal) was > 100 µM and the TGI (786-0 renal) was > 100 µM. For the same compound, the TGI (SK-MEL-2 melanoma) was > 92.1 µM, the TGI (EKVX NSCLC) was > 100 µM and the TGI (PC-3 prostate) was > 100 µM. For the same compound, the TGI (CCRF-CEM leukemia) was > 100 µM, the TGI (HCT-116 colon) was > 100 µM and the TGI (MCF7 breast) was > 100 µM. For the same compound, the TGI (NCI/ADR-RES ovarian) was > 100 µM, the TGI (SK-OV-3 ovarian) was > 100 µM and the TGI (NCI-H460 lung) was > 100 µM. The TGI (T-47D breast) was > 100 µM, the TGI (HL-60(TB) leukemia) was > 89.3 µM and the TGI (OVCAR-5 ovarian) was > 100 µM. For the same compound, the TGI (SR leukemia) was > 82.4 µM, the TGI (MDA-MB-231 breast) was > 100 µM and the TGI (OVCAR-8 ovarian) was > 100 µM. The TGI (UACC-62 melanoma) was > 100 µM, the TGI (HCT-15 colon) was > 100 µM and the TGI (HCC-2998 colon) was 33.9 µM. For the same compound, the TGI (HOP-62 NSCLC) was > 100 µM, the TGI (HOP-92 NSCLC) was 45.6 µM and the TGI (UO-31 renal) was > 100 µM. For the same compound, the TGI (A498 renal) was > 100 µM, the TGI (MDA-MB-435) was > 100 µM and the TGI (MDA-N) was > 100 µM. The TGI (SW-620 colon) was > 100 µM, the TGI (KM12 colon) was > 100 µM and the TGI (SK-MEL-28 melanoma) was 38.5 µM. For the same compound, the TGI (MOLT-4 leukemia) was > 100 µM, the TGI (CAKI-1 renal) was > 100 µM and the TGI (K-562 leukemia) was > 100 µM. For the same compound, the TGI (RXF 393 renal) was > 89.9 µM, the TGI (OVCAR-3 ovarian) was > 100 µM and the TGI (SF-539 CNS) was > 100 µM. For the same compound, the TGI (NCI-H226 lung) was > 100 µM, the TGI (OVCAR-4 ovarian) was > 100 µM and the TGI (COLO 205 colon) was 32.3 µM. The TGI (ACHN renal) was > 100 µM, the TGI (U251 CNS) was > 100 µM and the TGI (NCI-H522 lung) was > 100 µM. The TGI (UACC-257 melanoma) was 37.1 µM, the TGI (SK-MEL-5 melanoma) was 36.4 µM and the TGI (TK-10 renal) was > 100 µM. The TGI (HS 578T breast) was > 100 µM, the TGI (M14 melanoma) was 32.7 µM and the TGI (BT-549 breast) was > 100 µM. The TGI (SF-268 CNS) was > 100 µM and the TGI (MALME-3M melanoma) was 44.6 µM.

`COc1cc2c(cc1OCCCC(=O)Nc1cc(C(=O)Nc3cc(C(=O)Nc4cc(C(=O)NCCCN(C)C)n(C)n4)n(C)c3)n(C)c1)N=CC1CCCN1C2=O` (stereo not drawn) was tested, and the TGI (NCI-H23 lung) was 78.5 µM, the TGI (SNB-19 CNS) was 49.7 µM and the TGI (SNB-75 CNS) was 44.7 µM. It also gave a TGI (RPMI-8226 leukemia) of 82.8 µM, a TGI (IGROV1 ovarian) of 49.1 µM and a TGI (HT29 colon) of 44.5 µM. For the same compound, the TGI (DU-145 prostate) was > 100 µM, the TGI (SF-295 CNS) was > 100 µM and the TGI (LOX IMVI melanoma) was 55.5 µM. For the same compound, the TGI (A549 NSCLC) was > 100 µM, the TGI (SN12C renal) was 51.3 µM and the TGI (786-0 renal) was > 100 µM. The TGI (SK-MEL-2 melanoma) was 49.9 µM, the TGI (EKVX NSCLC) was > 100 µM and the TGI (PC-3 prostate) was 48.9 µM. For the same compound, the TGI (CCRF-CEM leukemia) was > 100 µM, the TGI (HCT-116 colon) was > 100 µM and the TGI (MCF7 breast) was 58.7 µM. The TGI (NCI/ADR-RES ovarian) was > 100 µM, the TGI (SK-OV-3 ovarian) was > 100 µM and the TGI (NCI-H460 lung) was > 100 µM. For the same compound, the TGI (T-47D breast) was > 100 µM, the TGI (HL-60(TB) leukemia) was 16.3 µM and the TGI (OVCAR-5 ovarian) was > 100 µM. For the same compound, the TGI (SR leukemia) was 25.4 µM, the TGI (MDA-MB-231 breast) was > 100 µM and the TGI (OVCAR-8 ovarian) was > 100 µM. For the same compound, the TGI (UACC-62 melanoma) was 39.9 µM, the TGI (HCT-15 colon) was > 100 µM and the TGI (HCC-2998 colon) was 76.5 µM. The TGI (HOP-62 NSCLC) was > 100 µM, the TGI (HOP-92 NSCLC) was 51.1 µM and the TGI (UO-31 renal) was 53 µM. For the same compound, the TGI (A498 renal) was 57.7 µM, the TGI (MDA-MB-435) was 64.5 µM and the TGI (MDA-N) was 41.4 µM. For the same compound, the TGI (SW-620 colon) was 48.6 µM, the TGI (KM12 colon) was 64.1 µM and the TGI (SK-MEL-28 melanoma) was 33.9 µM. It also gave a TGI (MOLT-4 leukemia) of 32.4 µM, a TGI (CAKI-1 renal) of 78.1 µM and a TGI (K-562 leukemia) of 39.8 µM. The TGI (RXF 393 renal) was 42.3 µM, the TGI (OVCAR-3 ovarian) was > 100 µM and the TGI (SF-539 CNS) was 48.5 µM. The TGI (NCI-H226 lung) was 51.3 µM, the TGI (OVCAR-4 ovarian) was 38.6 µM and the TGI (COLO 205 colon) was > 100 µM. For the same compound, the TGI (ACHN renal) was 40 µM, the TGI (U251 CNS) was 59.8 µM and the TGI (NCI-H522 lung) was 4.77 µM. For the same compound, the TGI (UACC-257 melanoma) was 44 µM, the TGI (SK-MEL-5 melanoma) was 42.6 µM and the TGI (TK-10 renal) was 39.4 µM. The TGI (HS 578T breast) was 48 µM, the TGI (M14 melanoma) was 72.2 µM and the TGI (BT-549 breast) was 44.7 µM. It also gave a TGI (SF-268 CNS) of 63.1 µM and a TGI (MALME-3M melanoma) of 36.6 µM.
